Source: US6635639B2, “Use of N-alkylamino-heterocylic compounds for the treatment of migraine” (NPS Allelix Corp., priority 1998, dated 2003)

Tests used:
[1] = biological target: T1, 5-HT1D receptor (Homo sapiens, UniProt P28221); experiment: Binding affinity, 3H-serotonin displacement from membranes of cells expressing 5-HT1D; details: binding of radioligand inhibited in the presence of 100 nM of test compound; 3H-serotonin 1 nM; read-out: percent inhibition at the 5-HT1D receptor
T1 construct: expressed in transfected cells
T1 sequence (P28221 whole entry): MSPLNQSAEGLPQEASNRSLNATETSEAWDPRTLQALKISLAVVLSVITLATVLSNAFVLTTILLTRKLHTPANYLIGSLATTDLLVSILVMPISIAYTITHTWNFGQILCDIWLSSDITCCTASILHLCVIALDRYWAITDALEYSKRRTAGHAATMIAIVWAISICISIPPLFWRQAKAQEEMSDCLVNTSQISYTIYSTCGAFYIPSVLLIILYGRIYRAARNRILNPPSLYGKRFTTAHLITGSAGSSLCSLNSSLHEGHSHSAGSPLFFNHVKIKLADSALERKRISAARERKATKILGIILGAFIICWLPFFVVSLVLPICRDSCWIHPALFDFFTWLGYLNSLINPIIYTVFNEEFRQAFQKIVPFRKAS
Procedure: (§1) Selected compounds of the previous examples, as well as reference compounds, were evaluated for binding affinity using cell types receptive specifically to 5-HT1D and 5-HT1B ligands. The assay protocol generally entailed the incubation of membranes prepared from cells expressing the 5-HT1D or 5-HT1B subtype of 5-HT receptors with ^3H-serotonin (1 nM for 5-HT1D and 2.5 nM for 5-HT1B). Specific concentrations of the test compound were incubated with the radioligand and the membrane homogenates prepared from the recombinant cells. After a 60 minute incubation at 22° C., the incubation was terminated by vacuum filtration. The filters were washed with buffer and counted for radioactivity using liquid scintillation spectroscopy. The affinity of the test compound for the 5-HT1D receptor is expressed as the amount (in percent) of binding of the radioligand that is inhibited in the presence of 100 nM of test compound. A greater percent inhibition indicates greater affinity for the 5-HT1D receptor.

[2] = biological target: T2, 5-HT1B receptor (Homo sapiens, UniProt P28222); experiment: Binding affinity, 3H-serotonin displacement from membranes of cells expressing 5-HT1B; details: 1 h; 3H-serotonin 2.5 nM; selectivity comparison; read-out: percent inhibition at the 5-HT1B receptor
T2 construct: expressed in transfected cells
T2 sequence (P28222 whole entry): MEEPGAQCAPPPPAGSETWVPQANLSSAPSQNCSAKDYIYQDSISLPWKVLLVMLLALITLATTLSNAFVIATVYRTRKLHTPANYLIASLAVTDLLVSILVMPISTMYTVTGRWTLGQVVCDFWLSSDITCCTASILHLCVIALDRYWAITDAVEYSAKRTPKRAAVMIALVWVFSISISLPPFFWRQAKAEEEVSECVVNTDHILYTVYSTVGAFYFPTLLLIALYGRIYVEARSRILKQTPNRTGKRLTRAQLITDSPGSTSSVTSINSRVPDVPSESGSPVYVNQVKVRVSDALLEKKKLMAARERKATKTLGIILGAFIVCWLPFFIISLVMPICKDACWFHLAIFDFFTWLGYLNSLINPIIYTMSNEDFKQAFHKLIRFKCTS
Procedure: as §1

SMILES | inhibition at 0.1 µM [1] [%] | inhibition at 0.1 µM [2] [%]
CCN(CC)CCn1ccc2ccc(-c3cccnc3)cc21 [Example 10dd, 1-(2-(N,N-diethylamino)ethyl)-6-(3-pyridinyl)-1H-indole] | > 75 | 
CN(C)CCn1ncc2ccc(-c3ccncc3)cc21 [Example 12, 1-(2-(N,N-dimethylamino)ethyl)-6(4-pyridinyl)-1H-indazole] | > 75 | 
CN(C)CCn1ncc2ccc(-c3ccsc3)cc21 [Example 10b, 1-(2-(N,N-dimethylamino)ethyl)-6-(3-thienyl)-1H-indazole] | > 90 | 
CN(C)CCn1ccc2ccc(-c3cccs3)cc21 [Example 10t, 1-(2-(N,N-dimethylamino)ethyl)-6-(2-thienyl)-1H-indole] | > 75 | 
CN(C)CCn1ccc2ccc(C3(O)CCOCC3)cc21 [Example 6, 6-(4-hydroxy-tetrahydropyran-4-yl)-1-(2-(N,N-dimethylamino)ethyl)-1H-indole] | > 90 | 
CN(C)CCn1ccc2ccc(-c3ccccn3)cc21 [Example 12b, 1-(2-(N,N-dimethylamino)ethyl)-6-(pyridin-2-yl)-1H-indole] | > 50 | 
CN(C)CCn1ccc2ccc(-c3cccnc3)cc21 [Example 10w, 1-(2-(N,N-dimethylamino)ethyl)-6-(3-pyridinyl)-1H-indole] | > 90 | 
CN(C)CCn1ncc2ccc(-c3cccs3)cc21 [Example 10, 1-(2-(N,N-dimethylamino)ethyl)-6-(2-thienyl)-1H-indazole] | > 75 | < 50
CN(C)CCn1ccc2ccc(C3(O)CCSCC3)cc21 [Example 3, 1-(2-(N,N-Dimethylamino)ethyl)-6-(4-hydroxy-tetrahydro-thiopyran-4-yl)-1H-indole] | > 75 | < 15
c1cc(-c2ccc3cnn(CCNC4CC4)c3c2)cs1 [Example 9p, 1-(2-(N-cyclopropylamino)ethyl)-6-(3-thienyl)-1H-indazole] | > 75 | 
c1cc(-c2ccc3cnn(CCN4CCCC4)c3c2)cs1 [Example 9i, 1-(2-(N-pyrrolidinyl)ethyl)-6-(3-thienyl)-1H-indazole] | > 75 | < 15

Next, values leading:

inhibition at 0.1 µM [1] [%] | inhibition at 0.1 µM [2] [%] | SMILES
> 50 |  | CCN(CC)CCn1ncc2ccc(-c3cc4ccccc4o3)cc21 [Example 10o, 1-(2-(N,N-diethylamino)ethyl)-6-(benzofuran-2-yl)-1H-indazole]
> 75 |  | CCN(CC)CCn1ncc2ccc(C3CCSCC3)cc21 [Example 16d, 1-(2-(N,N-diethylamino)ethyl)-6-(tetrahydrothiopyran-4-yl)-1H-indazole]
> 75 | < 15 | CCN(CC)CCn1ncc2ccc(-c3cccnc3)cc21 [Example 10h, 1-(2-(N,N-diethylamino)ethyl)-6-(3-pyridinyl)-1H-indazole]
> 75 | < 15 | CCN(CC)CCn1ncc2ccc(C3CCOCC3)cc21 [Example 16, 1-(2-(N,N-diethylamino)ethyl)-6-(tetrahydropyran-4-yl)-1H-indazole]
> 75 | < 15 | CCN(CC)CCn1ccc2ccc(C3CCSCC3)cc21 [Example 5e, 1-(2-(N,N-diethylamino)ethyl)-6-(tetrahydrothiopyran-4-yl)-1H-indole]
> 75 | < 15 | CCN(CC)CCn1ncc2ccc(-c3ccsc3)cc21 [Example 9b, 1-(2-(N,N-diethylamino)ethyl)-6-(3-thienyl)-1H-indazole]
> 75 | < 15 | CCN(CC)CCn1ncc2ccc(-c3ccoc3)cc21 [Example 10i, 1-(2-(N,N-diethylamino)ethyl)-6-(furan-3-yl)-1H-indazole]
